This is an account of results in ChEMBL document CHEMBL5584329, “Development of new dehydrocostuslactone derivatives for treatment of atopic dermatitis via inhibition of the NF-κB signaling pathway” (RSC Med Chem, 2024).

Active and inactive are the calls of the source. No cut-off for these calls is given here.

Data set [1] has as its system RAW264.7. As to the kind of experiment: Inhibition of LPS-induced NO production in mouse RAW264.7 cells preincubated for 2 hrs followed by LPS addition and measured after 24 hrs by Griess assay relative to control. The data set is classed as functional, cell-based.
A short description of data set [2]: Cytotoxicity against mouse RAW264.7 cells assessed as inhibition of cell viability by MTT assay relative to control. The data set is classed as toxicity, cell-based.
For data set [3], the system named is Mus musculus. As to the kind of experiment: Antiinflammatory activity against MC093-induced atopic dermatitis BALB/c mouse model assessed as reduction in epidermal thickness of ear administered starting from day 4 to 10 after MC093-stimulation by H and E staining assay. The data set is classed as functional, organism-based.
The subject of data set [4] is Mus musculus. Briefly: Antiinflammatory activity against MC093-induced atopic dermatitis BALB/c mouse model assessed as reduction in inflammatory cell infiltration in ear administered starting from day 4 to 10 after MC093-stimulation by H and E staining assay. The data set is classed as functional, organism-based.
The nature of data set [5]: Cytotoxicity against mouse RAW264.7 cells assessed as inhibition of cell viability at 20 uM by MTT assay relative to control. The following applies: read-out: INH. It counts as toxicity, cell-based.
In data set [6] the test system is RAW264.7. Briefly: Inhibition of LPS-induced NO production in mouse RAW264.7 cells at 20 uM preincubated for 2 hrs followed by LPS addition and measured after 24 hrs by Griess assay relative to control. It counts as functional. The following applies: time 26 hrs.

For `C[C@@H]1C[C@H]2[C@@H]3CCC4=CC(=O)C=C[C@]4(C)[C@@]3(F)[C@@H](O)C[C@]2(C)[C@@]1(O)C(=O)CO` [DEXAMETHASONE], the half-maximal inhibitory concentration (IC50) in the data set with RAW264.7 [1] was 11 µM; in data set [2], > 40 µM. In addition, the result in the data set with Mus musculus [3] and in the data set with Mus musculus [4] was Active.

Regarding `C=C1CC[C@H]2C(=C)CC[C@H]3C(CN(CCNS(=O)(=O)c4ccc(C(C)(C)C)cc4)S(=O)(=O)c4ccc(C(C)(C)C)cc4)C(=O)O[C@@H]3[C@@H]12` (stereo not given in full), in data set [5], the cytotoxicity at 20 µM amounted to 9.88%. Besides, the IC50 in the data set on RAW264.7 [1] is 6.31 µM; in data set [2], > 40 µM. The same compound displayed an inhibition at 20 µM in the data set with RAW264.7 [6] of 81.2%.

On to `C=C1CC[C@H]2C(=C)CC[C@H]3C(CN(CCNS(=O)(=O)c4ccc(C)cc4)S(=O)(=O)c4ccc(C)cc4)C(=O)O[C@@H]3[C@@H]12` (stereo not given in full), for which the cytotoxicity at 20 µM in data set [5] was 14.8%. The IC50 with RAW264.7 [1] is 7.72 µM; in data set [2], > 40 µM. This compound also gave an inhibition at 20 µM in the data set with RAW264.7 [6] of 82.5%.

Regarding `C=C1CC[C@H]2C(=C)CC[C@H]3C(CN(CCNS(=O)(=O)c4ccc(OC(F)(F)F)cc4)S(=O)(=O)c4ccc(OC(F)(F)F)cc4)C(=O)O[C@@H]3[C@@H]12` (stereo not given in full), the cytotoxicity at 20 µM in data set [5] was determined as 13.6%. In addition, the results for the half-maximal inhibitory concentration (IC50) (with RAW264.7 [1]; in data set [2]) were 4.26 µM and > 40 µM, respectively. This compound gave an inhibition at 20 µM in the data set on RAW264.7 [6] of 84%.

As to `C=C1CC[C@H]2C(=C)CC[C@H]3C(=C)C(=O)O[C@@H]3[C@@H]12` [DEHYDROCOSTUSLACTONE], the cytotoxicity at 20 µM in data set [5] came to 17.3%. For the same compound, the IC50 was 21.5 µM in the data set on RAW264.7 [1] and > 40 µM in data set [2]. This compound also had an inhibition at 20 µM with RAW264.7 [6] of 40.3%.

`C=C1CC[C@H]2C(=C)CC[C@H]3C(CNCCNS(=O)(=O)C4CC4)C(=O)O[C@@H]3[C@@H]12` (stereo not given in full): in data set [5], the cytotoxicity at 20 µM stood at 12.2%. The IC50 is 5.13 µM in the data set on RAW264.7 [1] and > 40 µM in data set [2]. The same compound came in with an inhibition at 20 µM in the data set on RAW264.7 [6] of 85.4%.

Take `C=C1CC[C@H]2C(=C)CC[C@H]3C(CN(CCNS(=O)(=O)c4ccc5ccccc5c4)S(=O)(=O)c4ccc5ccccc5c4)C(=O)O[C@@H]3[C@@H]12` (stereo not given in full): the cytotoxicity at 20 µM in data set [5] was 8.58%. Also, the half-maximal inhibitory concentration (IC50) in the data set with RAW264.7 [1] is 16.6 µM; in data set [2] it was > 40 µM. In the data set on RAW264.7 [6], this compound came in with an inhibition at 20 µM of 76.8%.

For `C=C1CC[C@H]2C(=C)CC[C@H]3C(CN(CCNS(=O)(=O)c4ccc(F)cc4)S(=O)(=O)c4ccc(F)cc4)C(=O)O[C@@H]3[C@@H]12` (stereo not given in full), the cytotoxicity at 20 µM in data set [5] stood at 9.81%. In addition, the values for the IC50 (with RAW264.7 [1]; in data set [2]) were 15.2 µM and > 40 µM, respectively. In addition, 20 µM produced 75.1% inhibition with RAW264.7 [6].

For the compound `C=C1CC[C@H]2C(=C)CC[C@H]3C(CN(CCNS(=O)(=O)c4cc(Cl)c(F)cc4F)S(=O)(=O)c4cc(Cl)c(F)cc4F)C(=O)O[C@@H]3[C@@H]12` (stereo not given in full), in data set [5], the cytotoxicity at 20 µM was 10.4%. The IC50 in the data set with RAW264.7 [1] was 12.9 µM; in data set [2] it was > 40 µM. In the data set with RAW264.7 [6], this compound returned an inhibition at 20 µM of 68.1%.

As to `C=C1CC[C@H]2C(=C)CC[C@H]3C(CNCCNCc4cc(Cl)ccc4O)C(=O)O[C@@H]3[C@@H]12` (stereo not given in full), in data set [5], the cytotoxicity at 20 µM came out at 16.7%. This compound also registered an inhibition at 20 µM in the data set on RAW264.7 [6] of 34.1%.

Regarding `C=C1CC[C@H]2C(=C)CC[C@H]3C(CNCCNCc4cc([N+](=O)[O-])ccc4O)C(=O)O[C@@H]3[C@@H]12` (stereo not given in full), in data set [5], the cytotoxicity at 20 µM came out at 24.7%. Moreover, the IC50 in the data set with RAW264.7 [1] is 10.2 µM; in data set [2], > 40 µM. Moreover, the inhibition at 20 µM with RAW264.7 [6] came out at 68.4%.

Regarding `C=C1CC[C@H]2C(=C)CC[C@H]3C(CN(CCNS(=O)(=O)c4cccc(Cl)c4F)S(=O)(=O)c4cccc(Cl)c4F)C(=O)O[C@@H]3[C@@H]12` (stereo not given in full), in data set [5], the cytotoxicity at 20 µM is 1.67%. The inhibition at 20 µM with RAW264.7 [6] was 48.1%.

As for `C=C1CC[C@H]2C(=C)CC[C@H]3C(CNCCNCc4cc(Cl)cc(Cl)c4O)C(=O)O[C@@H]3[C@@H]12` (stereo not given in full), the cytotoxicity at 20 µM in data set [5] is 8.94%. Moreover, the IC50 was 19.4 µM in the data set with RAW264.7 [1] and > 40 µM in data set [2]. Further, at 20 µM the inhibition in the data set with RAW264.7 [6] was 51.5%.

In the case of `C=C1CC[C@H]2C(=C)CC[C@H]3C(CNCCNCc4cc(Br)ccc4O)C(=O)O[C@@H]3[C@@H]12` (stereo not given in full), the cytotoxicity at 20 µM in data set [5] was -2.07%. Further, the inhibition at 20 µM in the data set with RAW264.7 [6] is 23.5%.
